Consider 27 molecules from patent publication US8618095B2 (Rigel Pharmaceuticals, Inc., priority 2010, dated 2013).

Molecules are shown by their SMILES. Where a name gives a salt, the structure may show the parent alone.

The first test relates to Human mast cells (CHMC). Briefly: LD Tryptase release assay in CHMC (mast cell activation induced by FcγR cross-linking). The conditions noted are these: Homo sapiens, Mast cell, anti-IgG stimulation, activity of tryptase released upon degranulation. In kind it is cell-based. A digest of the protocol:
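Mast cells derived from CD38-negative progenitors were preincubated 1 h at 37 °C with compound in HEPES-buffered saline (pH 7.4, 0.1% BSA, compound diluted in buffer with 2% MeOH/1% DMSO). Cells were then stimulated 60 min with anti-human IgG (final 1 μg/mL). Released tryptase was measured on Z-Ala-Lys-Arg-AMC (30 min, room temperature, 355/460 nm) to give the IC50.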
The IC50 is the concentration needed to halve the response being measured. For `CC1(C)Oc2ccc(Nc3nc(Nc4ccc(N5CCO[C@@H](CF)C5)nc4)ncc3F)nc2NC1=O` [Compound 145, N4-(2,2-dimethyl-3,4-dihydro-3-oxo-2H-pyrido[3,2-b][1,4]oxazin-6-yl)-5-fluoro-N2-[6-((2R)-2-(fluoromethyl)morpholino)pyridin-3-yl]-2,4-pyrimidinediamine], the IC50 is below 100 nM.

In the case of `CC1(C)CN(c2ccc(Nc3ncc(F)c(Nc4ccc5c(n4)NC(=O)CO5)n3)cn2)CCO1` [Compound 9, N4-(3,4-dihydro-3-oxo-2H-pyrido[3,2-b][1,4]oxazin-6-yl)-5-fluoro-N2-[6-(2,2-dimethylmorpholino)pyridin-3-yl]-2,4-pyrimidinediamine], the IC50 is 100 to 500 nM.

Consider `CCN(CC)C1CCN(c2ccc(Nc3ncc(F)c(Nc4ccc5c(n4)NC(=O)C(C)(C)O5)n3)cn2)CC1` [Compound 61, N4-(2,2-dimethyl-3,4-dihydro-3-oxo-2H-pyrido[3,2-b][1,4]oxazin-6-yl)-5-fluoro-N2-[6-(4-(diethylamino)piperidin-1-yl)pyridin-3-yl]-2,4-pyrimidinediamine], for which the IC50 was 100 to 500 nM.

For `C[C@H]1CN(c2ccc(Nc3ncc(F)c(Nc4ccc5c(n4)NC(=O)C(C)(C)O5)n3)cc2)CCO1` [Compound 79, N4-(2,2-dimethyl-3,4-dihydro-3-oxo-2H-pyrido[3,2-b][1,4]oxazin-6-yl)-5-fluoro-N2-1-2,4-pyrimidinediamine], the IC50 lay within 100 to 500 nM.

As for `CC1(C)Oc2ccc(Nc3nc(Nc4ccc(N5CCC6(CCCO6)CC5)cc4)ncc3F)nc2NC1=O` [Compound 156, N4-(2,2-dimethyl-3,4-dihydro-3-oxo-2H-pyrido[3,2-b][1,4]oxazin-6-yl)-5-fluoro-N2-[4-(1-oxa-8-azaspiro[4.5]decan-8-yl)phenyl]-2,4-pyrimidinediamine], the IC50 is 100 to 500 nM.

On to `C[C@@H]1CN(c2ccc(Nc3ncc(F)c(Nc4ccc5c(n4)NC(=O)C(C)(C)O5)n3)cn2)C[C@H](C)O1` [Compound 96, rac-Cis-N4-(2,2-dimethyl-3,4-dihydro-3-oxo-2H-pyrido[3,2-b][1,4]oxazin-6-yl)-N2-[6-(2,6-dimethylmorpholino)pyridin-3-yl]-5-fluoro-2,4-pyrimidinediamine], for which the IC50 lay in the range of 100 to 500 nM.

For `CN1CCN(c2ccc(Nc3ncc(F)c(Nc4ccc5c(n4)NC(=O)C(C)(C)O5)n3)cn2)CC1` [Compound 18, N4-(2,2-dimethyl-3,4-dihydro-3-oxo-2H-pyrido[3,2-b][1,4]oxazin-6-yl)-5-fluoro-N2-[6-(4-methylpiperazin-1-yl)pyridin-3-yl]-2,4-pyrimidinediamine], the IC50 was in the range of 500 to 1000 nM.

Regarding `CC1(C)Oc2ccc(Nc3nc(Nc4ccc(N5CCS(=O)(=O)CC5)cc4)ncc3F)nc2NC1=O` [Compound 149, N4-(2,2-dimethyl-3,4-dihydro-3-oxo-2H-pyrido[3,2-b][1,4]oxazin-6-yl)-5-fluoro-N2-[4-(1,1-dioxidothiomorpholin-4-yl)phenyl]-2,4-pyrimidinediamine], the concentration for half-maximal inhibition (IC50) was below 100 nM.

Regarding `C[C@H]1CN(c2ccc(Nc3ncc(F)c(Nc4ccc5c(n4)NC(=O)CO5)n3)cn2)[C@@H](C)CO1` (racemic) [Compound 104, rac-N4-(3,4-dihydro-3-oxo-2H-pyrido[3,2-b][1,4]oxazin-6-yl)-N2-[6-(2,5-dimethylmorpholino)pyridin-3-yl]-5-fluoro-2,4-pyrimidinediamine], the IC50 lay in the range of 100 to 500 nM.

As for `CC1(C)Oc2ccc(Nc3nc(Nc4ccc(-c5cccnc5)nc4)ncc3F)nc2NC1=O` [Compound 75, N4-(2,2-dimethyl-3,4-dihydro-3-oxo-2H-pyrido[3,2-b][1,4]oxazin-6-yl)-5-fluoro-N2-[2,3′-bipyridin-5-yl]-2,4-pyrimidinediamine], the IC50 fell in the range of 1000 to 100000 nM.

For the molecule `C[C@H]1CN(c2ccc(Nc3ncc(F)c(Nc4ccc5c(n4)NC(=O)CO5)n3)cn2)CCO1` [Compound 93, N4-(3,4-dihydro-3-oxo-2H-pyrido[3,2-b][1,4]oxazin-6-yl)-5-fluoro-N2-[6-((2S)-2-methylmorpholino)pyridin-3-yl]-2,4-pyrimidinediamine], the IC50 lay within 100 to 500 nM.

As to `CC1(C)Oc2ccc(Nc3nc(Nc4ccc(C5CCOCC5)cc4)ncc3F)nc2NC1=O` [Compound 47, N4-(2,2-dimethyl-3,4-dihydro-3-oxo-2H-pyrido[3,2-b][1,4]oxazin-6-yl)-5-fluoro-N2-[4-tetrahydropyranophenyl]-2,4-pyrimidinediamine], the IC50 was in the range of 1000 to 100000 nM.

Regarding `CC1(C)Oc2ccc(Nc3nc(Nc4ccc(N5CCCOCC5)cc4)ncc3F)nc2NC1=O` [Compound 43, N4-(2,2-dimethyl-3,4-dihydro-3-oxo-2H-pyrido[3,2-b][1,4]oxazin-6-yl)-5-fluoro-N2-[4-homomorpholinophenyl]-2,4-pyrimidinediamine], the IC50 lay within 100 to 500 nM.

`COCCN(C)c1ccc(Nc2ncc(F)c(Nc3ccc4c(n3)NC(=O)C(C)(C)O4)n2)cn1` [Compound 99]: the IC50 was in the range of 100 to 500 nM.

For the molecule `COc1cc(Nc2ncc(F)c(Nc3ccc4c(n3)NC(=O)CO4)n2)ccc1C1CCOCC1` [Compound 49, N4-(3,4-dihydro-3-oxo-2H-pyrido[3,2-b][1,4]oxazin-6-yl)-5-fluoro-N2-[-3-methoxy-4-tetrahydropyranophenyl]-2,4-pyrimidinediamine], the IC50 is below 100 nM.

As to `O=C1COc2ccc(Nc3nc(Nc4cnc(N5CCOCC5)c(F)c4)ncc3F)nc2N1` [Compound 16, N4-(3,4-dihydro-3-oxo-2H-pyrido[3,2-b][1,4]oxazin-6-yl)-5-fluoro-N2-[5-fluoro-6-morpholinopyridin-3-yl]-2,4-pyrimidinediamine], the IC50 lay within 100 to 500 nM.

With `O=C1COc2ccc(Nc3nc(Nc4ccc(N5C[C@@H]6C[C@H]5CO6)cc4)ncc3F)nc2N1` [Compound 37, N4-(3,4-dihydro-3-oxo-2H-pyrido[3,2-b][1,4]oxazin-6-yl)-5-fluoro-N2-[4-((1S,4S)-5-oxa-2-aza-bicyclo[2.2.1]heptan-2-yl)phenyl]-2,4-pyrimidinediamine], the IC50 was 100 to 500 nM.

For `CN(C[C@H]1CCCO1)c1ccc(Nc2ncc(F)c(Nc3ccc4c(n3)NC(=O)CO4)n2)cn1` [Compound 110, N4-(3,4-dihydro-3-oxo-2H-pyrido[3,2-b][1,4]oxazin-6-yl)-5-fluoro-N2-[6-(((R)-methyl(tetrahydrofuran-2-yl)methyl)amino)pyridin-3-yl]-2,4-pyrimidinediamine], the IC50 was in the range of 1000 to 100000 nM.

In the case of `Cc1cc(Nc2ncc(F)c(Nc3ccc4c(n3)NC(=O)C(C)(C)O4)n2)cnc1N1CCOC(C)(C)C1` [Compound 14, N4-(2,2-dimethyl-3,4-dihydro-3-oxo-2H-pyrido[3,2-b][1,4]oxazin-6-yl)-5-fluoro-N2-[5-methyl-6-(2,2-dimethylmorpholino)pyridin-3-yl]-2,4-pyrimidinediamine], the IC50 lay within 500 to 1000 nM.

Consider `[2H]C1([2H])OC([2H])([2H])C([2H])([2H])N(c2ccc(Nc3ncc(F)c(Nc4ccc5c(n4)NC(=O)CO5)n3)cc2)C1([2H])[2H]` [Compound 130, N4-(2,2-dimethyl-3,4-dihydro-3-oxo-2H-pyrido[3,2-b][1,4]oxazin-6-yl)-5-fluoro-N2-[4-(2,2,3,3,5,5,6,6-d8-morpholino)phenyl]-2,4-pyrimidinediamine], for which the IC50 was below 100 nM.

Regarding `CC1(C)Oc2ccc(Nc3nc(Nc4ccc(N5CCSCC5)cc4)ncc3F)nc2NC1=O` [Compound 153, N4-(2,2-dimethyl-3,4-dihydro-3-oxo-2H-pyrido[3,2-b][1,4]oxazin-6-yl)-5-fluoro-N2-[4-thiomorpholinophenyl]-2,4-pyrimidinediamine], the IC50 fell in the range of 1000 to 100000 nM.

`CC1(C)Oc2ccc(Nc3nc(Nc4ccc(N5CCOC5=O)nc4)ncc3F)nc2NC1=O` [Compound 72, N4-(2,2-dimethyl-3,4-dihydro-3-oxo-2H-pyrido[3,2-b][1,4]oxazin-6-yl)-5-fluoro-N2-[6-(2-oxooxazolidin-3-yl)pyridin-3-yl]-2,4-pyrimidinediamine]: the IC50 lay in the range of 100 to 500 nM.

Turning to `CCOC[C@@H]1CN(c2ccc(Nc3ncc(F)c(Nc4ccc5c(n4)NC(=O)C(C)(C)O5)n3)cn2)CCO1` [Compound 101, N4-(2,2-dimethyl-3,4-dihydro-3-oxo-2H-pyrido[3,2-b][1,4]oxazin-6-yl)-N2-[6-(((2S)-2-ethoxymethyl)morpholino)pyridin-3-yl]-5-fluoro-2,4-pyrimidinediamine], the IC50 was in the range of 100 to 500 nM.

Staying with this test, now noted: anti-IgG stimulation, activity of tryptase released upon degranulation.
With `CC1(C)Oc2ccc(Nc3nc(Nc4ccc(N5CCOCC5)nc4)ncc3F)nc2NC1=O` [Compound 139, N4-(2,2-dimethyl-3,4-dihydro-3-oxo-2H-pyrido[3,2-b][1,4]oxazin-6-yl)-5-fluoro-N2-[6-morpholinopyridin-3-yl]-2,4-pyrimidinediamine p-toluenesulfonic acid salt], the IC50 was 500 to 1000 nM.

Turning to `CC1(C)Oc2ccc(Nc3nc(Nc4ccc(N5CCOCC5)nc4)ncc3F)nc2NC1=O` [Compound 140, N4-(2,2-dimethyl-3,4-dihydro-3-oxo-2H-pyrido[3,2-b][1,4]oxazin-6-yl)-5-fluoro-N2-[6-morpholinopyridin-3-yl]-2,4-pyrimidinediamine hydrochloric acid salt], the IC50 was in the range of 500 to 1000 nM.

On to `CC1(C)Oc2ccc(Nc3nc(Nc4ccc(N5CCOCC5)c(F)c4)ncc3F)nc2N(COP(=O)(O)O)C1=O` [Compound 113, N4-(2,2-dimethyl-3,4-dihydro-4-[(dihydrogenphosphonoxy)methyl]-3-oxo-2H-pyrido[3,2-b][1,4]oxazin-6-yl)-5-fluoro-N2-(3-fluoro-4-morpholinophenyl)-2,4-pyrimidinediamine disodium salt], for which the IC50 lay in the range of 1000 to 100000 nM.

For `CC1(C)Oc2ccc(Nc3nc(Nc4ccc(N5CCOCC5)nc4)ncc3F)nc2NC1=O` [Compound 3, N4-(2,2-dimethyl-3,4-dihydro-3-oxo-2H-pyrido[3,2-b][1,4]oxazin-6-yl)-5-fluoro-N2-[6-morpholinopyridin-3-yl]-2,4-pyrimidinediamine], the IC50 was below 100 nM.
